# Measurements taken from patent US20050164951A1, “Inhibitors for the soluble epoxide hydrolase” (The Regents of the University of California, priority 2003, published 2005).
# Where two headings read alike, the source gives them in different places.
# Legend:
# human sEH = biological target: T1, human sEH (Homo sapiens, UniProt P34913); assay: Inhibition of recombinant human sEH, IC50 assay with 4-nitrophenyl-trans-2,3-epoxy-3-phenylpropyl carbonate as substrate; type: biochemical; details: for IC90: 0.24 μM enzyme
# T1 construct: made in house; host or cells: baculovirus expression system
# T1 sequence (P34913 1-555): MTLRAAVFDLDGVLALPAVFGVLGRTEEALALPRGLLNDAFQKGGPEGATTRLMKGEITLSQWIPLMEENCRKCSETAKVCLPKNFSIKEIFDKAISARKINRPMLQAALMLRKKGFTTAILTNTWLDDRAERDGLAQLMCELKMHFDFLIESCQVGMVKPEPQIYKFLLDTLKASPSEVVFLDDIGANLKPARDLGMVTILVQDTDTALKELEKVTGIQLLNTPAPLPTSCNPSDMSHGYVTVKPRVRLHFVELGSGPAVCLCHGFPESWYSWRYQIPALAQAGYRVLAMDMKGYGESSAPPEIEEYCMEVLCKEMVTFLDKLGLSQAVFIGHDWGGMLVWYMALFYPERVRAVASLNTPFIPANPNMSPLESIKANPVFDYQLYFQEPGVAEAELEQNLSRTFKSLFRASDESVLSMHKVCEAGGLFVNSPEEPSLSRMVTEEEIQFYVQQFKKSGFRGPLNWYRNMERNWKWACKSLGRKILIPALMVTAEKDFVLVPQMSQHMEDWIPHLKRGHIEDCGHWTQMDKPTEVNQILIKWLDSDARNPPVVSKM
# Protocol: (§1) Assays were performed in triplicate. […] The curve was generated from at least three separate runs, each in triplicate, to obtain the standard deviation (SD) given in Table 1 thru Table 4.
# Water solubility = type: physicochemical; details: for water solubility: compared with non-functionalized lipophilic inhibitors (791, 790)
# mouse sEH = biological target: T2, mouse sEH (Mus musculus, UniProt P34914); assay: Inhibition of recombinant mouse sEH, IC50 assay with 4-nitrophenyl-trans-2,3-epoxy-3-phenylpropyl carbonate as substrate; type: biochemical
# T2 construct: made in house; host or cells: baculovirus expression system
# T2 sequence (P34914 1-554): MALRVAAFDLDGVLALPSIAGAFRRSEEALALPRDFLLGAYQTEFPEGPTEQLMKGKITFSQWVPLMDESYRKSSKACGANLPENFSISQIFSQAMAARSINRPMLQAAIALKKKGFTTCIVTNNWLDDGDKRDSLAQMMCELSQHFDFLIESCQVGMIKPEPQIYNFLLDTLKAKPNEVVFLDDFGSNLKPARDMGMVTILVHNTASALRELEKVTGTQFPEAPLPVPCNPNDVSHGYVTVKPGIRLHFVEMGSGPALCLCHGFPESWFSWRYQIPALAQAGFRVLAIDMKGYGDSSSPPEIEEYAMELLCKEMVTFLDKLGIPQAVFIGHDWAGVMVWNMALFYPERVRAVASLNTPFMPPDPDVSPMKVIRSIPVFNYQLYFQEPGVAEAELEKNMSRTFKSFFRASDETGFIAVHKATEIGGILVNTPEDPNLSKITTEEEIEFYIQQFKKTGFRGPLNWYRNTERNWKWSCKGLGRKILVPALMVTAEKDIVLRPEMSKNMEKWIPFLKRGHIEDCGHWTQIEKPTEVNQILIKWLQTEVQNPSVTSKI
# Protocol: as §1
# mouse and human sEH = assay: sEH IC50 assay, comparisons of the text made for both enzymes or without naming the enzyme; type: biochemical
# Protocol: as §1
# rat sEH = biological target: T3, rat sEH (Rattus norvegicus, UniProt P80299); assay: Relative turnover of arachidonic acid epoxides by rat sEH; type: biochemical; details: for relative substrate turnover of the epoxy arachidonates: 1:1:2 mixture of 8,9-, 11,12-, and 14,15-EET hydrolyzed to 30% by rat renal cortex cytosol; for Relative EET Turnover: Table 20, arachidonic acid epoxides with the rat sEH
# T3 construct: was hydrolyzed to 30% by rat renal cortex cytosol; from tissue; host or cells: rat renal cortex cytosol
# T3 sequence (P80299 1-554): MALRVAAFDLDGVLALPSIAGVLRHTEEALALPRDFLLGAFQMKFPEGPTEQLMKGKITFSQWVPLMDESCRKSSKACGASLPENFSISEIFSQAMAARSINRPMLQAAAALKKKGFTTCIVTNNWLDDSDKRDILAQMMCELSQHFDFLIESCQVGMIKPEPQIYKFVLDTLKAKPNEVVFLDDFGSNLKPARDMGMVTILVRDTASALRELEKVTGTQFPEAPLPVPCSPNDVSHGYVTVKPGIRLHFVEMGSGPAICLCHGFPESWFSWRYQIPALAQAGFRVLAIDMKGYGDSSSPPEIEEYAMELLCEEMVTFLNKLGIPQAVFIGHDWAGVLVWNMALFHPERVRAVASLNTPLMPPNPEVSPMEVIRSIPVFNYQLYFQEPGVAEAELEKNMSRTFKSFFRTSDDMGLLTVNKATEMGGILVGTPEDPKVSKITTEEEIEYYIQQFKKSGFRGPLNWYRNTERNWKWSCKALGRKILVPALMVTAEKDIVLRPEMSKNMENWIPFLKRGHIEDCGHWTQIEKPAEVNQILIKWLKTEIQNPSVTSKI
# Protocol: For epoxy fatty acid hydrolysis, the soluble epoxide hydrolase prefers substrates with epoxide moieties that are more distant from the carboxyl terminal. Specifically the substrate preference decreases in the order of 14,15-EET >11,12-EET >8,9-EET >>>5,6-EET for the epoxides of arachidonic acid. Independently, the relative substrate turnover of the epoxy arachidonates were calculated at 0.1:8.1:14.3 when a 1:1:2 mixture of 8,9-, 11,12-, and 14,15-EET fatty acid was hydrolyzed to 30% by rat renal cortex cytosol. By considering the primary pharmacophore of the urea to be a transition-state analog of epoxide hydrolysis, preferred inhibitors have now been developed which incorporate long aliphatic acids. These compounds are better substrate and transition state mimics than those incorporating shorter aliphatic acids. Accordingly, optimal soluble epoxide hydrolase inhibitors can be obtained by producing compounds with aliphatic acid substituents (i.e. a tertiary pharmacophore) which are separated from the primary pharmacophore by an equivalent distance as the terminal acid is separated from the epoxide in optimal substrates. Within the enzyme active site, epoxy fatty acids have been predicted to exist in an extended or pseudo-linear confirmation. Therefore, both the epoxy fatty acids and the aliphatic acid containing urea structures were approximated as two dimensional linear representations and measurements were made on each species. The critical measurements taken were distances (in angstroms) from the carboxylate hydroxyl to the urea carbonyl and the urea nitrogens.
# [1] = Blood concentration after oral administration of 950 and AUDA-nBE, human pharmacokinetic profile; type: in vivo; details: for pharmacokinetics: see FIGS. 15-27
# Protocol: FIG. 16 provides a sample preparation procedure for a pharmacokinetic study. A 5 μl whole blood sample was drawn into a capillary at a specific time point, each sample was extracted and anaylzed by LC/MS-MS. […] AUDA is the active metabolite of AUDA-nBE. […] 0.05 mg/kg. (B). 0.1 mg/kg. […] The compounds were administered at the same time in the same formulation. […] 21 mg (0.3 mg/kg) 950 and AUDA-nBE were orally administrated with starch. (B). 7 mg (0.1 mg/kg) formulated 950 and AUDA-NBE were taken with (HPMC, starch and lactose). (C). […] 950 with HPMC and Starch. (B). 950 in lactose and HPMC. […] HPMC forms a gel which slowly erodes; lactose enhances erosion at it moves through the gut and starch retards it. These formulations are combined, ball milled, and then placed in ‘0’ capsule and not compressed.
# [2] = Table 2, […] enzyme, 5 min preincubation, pH 7.4, 30° C., means ± SD, read-out: IC50 (μM) Human sEH
# [3] = Table 2, […] enzyme, 5 min preincubation, pH 7.4, 30° C., means ± SD, read-out: IC50 (μM) Mouse sEH
# [4] = Table 1, 0.12 μM enzyme, 5 min preincubation, pH 7.4, 30° C., [S] = 40 μM, means ± SD of three experiments, read-out: IC50 (μM) Mouse sEH
# [5] = Table 5, 5 min preincubation, pH 7.4, 30° C., means ± SD
# [6] = Table 5, […] enzyme, 5 min preincubation, pH 7.4, 30° C., means ± SD, read-out: Human sEH IC50
# [7] = Table 5, 0.12 μM enzyme, 5 min preincubation, pH 7.4, 30° C., means ± SD
# [8] = Table 5, […] enzyme, 5 min preincubation, pH 7.4, 30° C., means ± SD, read-out: Mouse sEH IC50
# [9] = Tables 17a and b, read-out: IC50 (μM) Human sEH
# [10] = Tables 17a and b, read-out: IC50 (μM) Mouse sEH
# [11] = Table 9, established protocols, read-out: IC50 (μM) Human sEH
# [12] = Table 9, established protocols, read-out: IC50 (μM) Mouse sEH
compound,measurement,setting,value
"CCCCCOC(=O)CCCNC(=O)NC1CCCCC1 [Compound 772, 1-Cyclohexyl-3-(3-pentoxycarbonylpropyl)urea]",IC50,human sEH; [2],1.02 ± 0.05 µM
same,water solubility,Water solubility,increases their water solubility
same,IC50,mouse sEH; [3],0.05 ± 0.01 µM
same,increase of inhibitor potency over the 3-chlorophenyl analog (767),mouse and human sEH,10 fold
"CCCCCCCCCCNC(=O)NC12CC3CC(CC(C3)C1)C2 [Compound 790, reference compound]",IC50,human sEH; [2],0.1 ± 0.01 µM
same,solubility relative to the corresponding cyclohexyl derivative,"Water solubility; 772 vs. 789, 791 vs. 790, 297 vs. 686",approximately 2 x
same,IC50,mouse sEH; [3],0.05 ± 0.01 µM
"CCCCCC1OC1C/C=C\C/C=C\C/C=C\CCCC(=O)O (stereo not drawn) [14,15-EET]",relative substrate turnover of the epoxy arachidonates,rat sEH,14.3
same,Relative EET Turnover,rat sEH,14.3
CCCC(C)COCCCCCNC(=O)NC12CC3CC(CC(C3)C1)C2 (stereo not drawn) [Compound 955],detection in blood,"[1]; FIG. 27, after oral 950",not detected at any time point
"CCCCC/C=C\C/C=C\CC1OC1C/C=C\CCCC(=O)O (stereo not drawn) [8,9-EET]",relative substrate turnover of the epoxy arachidonates,rat sEH,0.1
same,Relative EET Turnover,rat sEH,1
"CCCCC/C=C\C[C@H]1O[C@H]1C/C=C\C/C=C\CCCC(=O)O [11,12-EET]",relative substrate turnover of the epoxy arachidonates,rat sEH,8.1
same,Relative EET Turnover,rat sEH,8.1
COC(=O)CCCNC(=O)NC1CCCCC1 [Compound 774],IC50,human sEH,6.2 ± 0.5 µM
same,IC50,mouse sEH; [4],0.33 ± 0.03 µM
same,fold higher activity than the esters of acetic and propanoic acids (549 and 635),mouse and human sEH; for both enzymes,8-100 fold
"CCCCC/C=C\C/C=C\C/C=C\CC1OC1CCCC(=O)O (stereo not drawn) [5,6-EET]",Relative EET Turnover,rat sEH,0.1
"CCCCCOC(=O)CCCNC(=O)Nc1cccc(Cl)c1 [Compound 767, 1-(3-chlorophenyl)-3-(3-pentoxycarbonylpropyl)urea]",IC50,"human sEH; Table 3, […] enzyme, 5 min preincubation, pH 7.4, 30° C., means ± SD, read-out: IC50 (μM) Human sEH",2.1 ± 0.07 µM
same,IC50,"mouse sEH; Table 3, […] enzyme, 5 min preincubation, pH 7.4, 30° C., means ± SD, read-out: IC50 (μM) Mouse sEH",0.37 ± 0.04 µM
same,better inhibition than 761,mouse and human sEH; methylene carbon left versus right of the carbonyl,20 fold
COCCOCCCCCNC(=O)NC12CC3CC(CC(C3)C1)C2 [Compound 908],IC50,"human sEH; Table 7, established protocols, read-out: IC50 (μM) Human sEH",0.16 ± 0.01 µM
same,water solubility,Water solubility,increased water solubility
same,pharmacokinetics,[1],improved pharmacokinetics
same,IC50,"mouse sEH; Table 7, established protocols, read-out: IC50 (μM) Mouse sEH",0.05 ± 0.01 µM
COCCOCCOCCOCCCCCNC(=O)NC12CC3CC(CC(C3)C1)C2 [Compound 952],pharmacokinetics,[1],improved pharmacokinetics
CCOC(=O)CCCCCCCCCCCOC(=O)CCCNC(=O)NC12CC3CC(CC(C3)C1)C2 [Compound 882],IC90,human sEH; [5],1800 ± 200 nM
same,IC50,human sEH; [6],0.1 ± 0.01 µM
same,IC90,mouse sEH; [7],630 ± 40 nM
same,IC50,mouse sEH; [8],0.05 ± 0.01 µM
O=C(O)CCCCNC(=O)NC1CCCCC1 [Compound 884],IC50,"human sEH; Table 1, […] enzyme, 5 min preincubation, pH 7.4, 30° C., [S] = 40 μM, means ± SD of three experiments, read-out: IC50 (μM) Human sEH",2.4 ± 0.1 µM
same,IC50,mouse sEH; [4],0.25 ± 0.02 µM
O=C(CCCCc1ccccc1)NC1CCCCC1 [Compound 992],IC50,human sEH; [9],1.6 ± 0.01 µM
same,IC50,mouse sEH; [10],0.05 ± 0.01 µM
O=C(CC1CCCCC1)NCCc1ccccc1 [Compound 993],IC50,human sEH; [9],4 ± 0.01 µM
same,IC50,mouse sEH; [10],2.1 ± 0.01 µM
CC(C)=CCC/C(C)=C/COC1CCC(NC(=O)NC23CC4CC(CC(C4)C2)C3)CC1 (stereo not drawn) [Compound 984],IC50,human sEH; [11],0.1 ± 0.01 µM
same,IC50,mouse sEH; [12],0.05 ± 0.01 µM
CCCCC(CO)NC(=O)Nc1cccc(Cl)c1 (stereo not drawn) [Compound 978],IC50,human sEH; [9],1.9 ± 0.01 µM
same,IC50,mouse sEH; [10],8.4 ± 0.01 µM
N#CC(OC(=O)CCCNC(=O)NC12CC3CC(CC(C3)C1)C2)c1ccccc1 (stereo not drawn) [Compound 946],IC50,human sEH; [9],0.15 ± 0.01 µM
same,IC50,mouse sEH; [10],0.05 ± 0.01 µM
CCCCCOC(=O)c1ccc(NC(=O)NC23CC4CC(CC(C4)C2)C3)cc1 [Compound 860],IC50,human sEH; [11],0.1 ± 0.01 µM
same,IC50,mouse sEH; [12],0.05 ± 0.01 µM
CCOC(=O)CCCCCCCCCCOC(=O)CCCNC(=O)NC12CC3CC(CC(C3)C1)C2 [Compound 881],IC90,human sEH; [5],1200 ± 100 nM
same,IC50,human sEH; [6],0.1 ± 0.01 µM
same,IC90,mouse sEH; [7],350 ± 50 nM
same,IC50,mouse sEH; [8],0.05 ± 0.01 µM
